Test results taken from patent publication US20240092784A1, “CONDENSED HETEROCYCLIC COMPOUND” (NISSAN CHEMICAL CORPORATION, priority 2020, published 2024).
Counter-ions that a name gives are not always drawn.

Molecular target: human SPR (Homo sapiens (Human), UniProt P35270)
Test: Evaluation Example 2: Measurement of human SPR inhibitory activity (seven concentrations, sepiapterin absorbance at 420 nm)
Assay type: biochemical
Conditions: Evaluation Example 2, seven concentrations 0.14 nM to 100 nM, 240 minutes at room temperature, read-out: IC50
Method in brief: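 Reactions ran 240 min at room temperature in 100 mM Tris-HCl pH 7.5 with 0.01% BSA. They contained tag-cleaved, E. coli-expressed full-length human SPR (diluted to 150 ng/mL), seven compound concentrations from 0.14 to 100 nM, and sepiapterin/NADPH added as a 120 μM/160 μM solution. Inhibition was calculated from sepiapterin absorbance at 420 nm.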

human SPR, sequence (P35270 whole entry): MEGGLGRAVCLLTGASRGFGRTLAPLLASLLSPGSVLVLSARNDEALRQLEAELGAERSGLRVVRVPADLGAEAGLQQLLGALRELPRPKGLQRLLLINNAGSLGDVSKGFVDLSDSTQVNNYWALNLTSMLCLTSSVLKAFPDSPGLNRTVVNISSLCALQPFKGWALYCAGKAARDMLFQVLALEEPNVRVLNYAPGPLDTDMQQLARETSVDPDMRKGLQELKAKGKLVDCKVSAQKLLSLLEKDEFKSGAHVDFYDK

| Structure (SMILES) | IC50 [nM] |
| --- | --- |
| CC(C)Cn1c(=O)c(C(=O)NC2CC2)c(O)n2nc(N)c(/C=C/C(=O)N3CCOC[C@H]3C)c12 [Synthesis Example 418, (R,E)-2-Amino-N-cyclopropyl-7-hydroxy-4-isobutyl-3-(3-(3-methylmorpholino)-3-oxoprop-1-en-1-yl)-5-oxo-4,5-dihydropyrazolo[1,5-a]pyrimidine-6-carboxamide hydrochloride] | 0.61 |
| Nc1nn2c(O)c(C(=O)NC3CC3)c(=O)n(CC3CC3)c2c1/C=C/C(=O)N1CCOCC1 [Synthesis Example 419, (E)-2-Amino-N-cyclopropyl-4-(cyclopropylmethyl)-7-hydroxy-3-(3-morpholino-3-oxoprop-1-en-1-yl)-5-oxo-4,5-dihydropyrazolo[1,5-a]pyrimidine-6-carboxamide hydrochloride] | 0.83 |
| Nc1nn2c(O)c(C(=O)NC3CC3)c(=O)n(CC3CC3)c2c1/C=C/C(=O)N1CCC(F)(F)CC1 [Synthesis Example 420, (E)-2-Amino-N-cyclopropyl-4-(cyclopropylmethyl)-3-(3-(4,4-difluoropiperidin-1-yl)-3-oxoprop-1-en-1-yl)-7-hydroxy-5-oxo-4,5-dihydropyrazolo[1,5-a]pyrimidine-6-carboxamide hydrochloride] | 0.75 |
| CC(C)Cn1c(=O)c(C(=O)N[C@@H](C)C(F)(F)F)c(O)n2nc(N)c(/C=C/C(=O)N3CCC(F)(F)CC3)c12 [Synthesis Example 421, (S,E)-2-Amino-3-(3-(4,4-difluoropiperidin-1-yl)-3-oxoprop-1-en-1-yl)-7-hydroxy-4-isobutyl-5-oxo-N-(1,1,1-trifluoropropan-2-yl)-4,5-dihydropyrazolo[1,5-a]pyrimidine-6-carboxamide hydrochloride] | 0.77 |
| CC(C)Cn1c(=O)c(C(=O)NC2CC2)c(O)n2nc(N)c(/C=C/C(=O)N3[C@@H](C)COC[C@@H]3C)c12 [Synthesis Example 422, 2-Amino-N-cyclopropyl-3-((E)-3-((3S,5S)-3,5-dimethylmorpholino)-3-oxoprop-1-en-1-yl)-7-hydroxy-4-isobutyl-5-oxo-4,5-dihydropyrazolo[1,5-a]pyrimidine-6-carboxamide] | 0.75 |
| CC(C)Cn1c(=O)c(C(=O)NC2CC2)c(O)n2nc(N)c(/C=C/C(=O)N3C4CCCC3COC4)c12 [Synthesis Example 423, (E)-3-(3-(3-Oxa-9-azabicyclo[3.3.1]nonan-9-yl)-3-oxoprop-1-en-1-yl)-2-amino-N-cyclopropyl-7-hydroxy-4-isobutyl-5-oxo-4,5-dihydropyrazolo[1,5-a]pyrimidine-6-carboxamide hydrochloride] | 0.71 |
| CC(C)(C)Cn1c(=O)c(C(=O)NC2CC2)c(O)n2nc(NC(N)=O)c(/C=C/C(=O)N3CCOCC3)c12 [Synthesis Example 424, (E)-N-Cyclopropyl-7-hydroxy-3-(3-morpholino-3-oxoprop-1-en-1-yl)-4-neopentyl-5-oxo-2-ureido-4,5-dihydropyrazolo[1,5-a]pyrimidine-6-carboxamide] | 0.67 |
| COC(=O)Nc1nn2c(O)c(C(=O)NC3CC3)c(=O)n(CC(C)C)c2c1/C=C/C(=O)N1CCOCC1 [Synthesis Example 425, Methyl (E)-(6-(cyclopropylcarbamoyl)-7-hydroxy-4-isobutyl-3-(3-morpholino-3-oxoprop-1-en-1-yl)-5-oxo-4,5-dihydropyrazolo[1,5-a]pyrimidin-2-yl)carbamate] | 0.77 |
| CNc1nn2c(O)c(C(=O)NC3CC3)c(=O)n(CC(C)C)c2c1/C=C/C(=O)N1CCCC1 [Synthesis Example 427, (E)-N-Cyclopropyl-7-hydroxy-4-isobutyl-2-(methylamino)-5-oxo-3-(3-oxo-3-(pyrrolidin-1-yl)prop-1-en-1-yl)-4,5-dihydropyrazolo[1,5-a]pyrimidine-6-carboxamide] | 0.95 |
| CNc1nn2c(O)c(C(=O)NC3CC3)c(=O)n(CC(C)C)c2c1/C=C/C(=O)N1CCC(F)(F)C1 [Synthesis Example 428, (E)-N-Cyclopropyl-3-(3-(3,3-difluoropyrrolidin-1-yl)-3-oxoprop-1-en-1-yl)-7-hydroxy-4-isobutyl-2-(methylamino)-5-oxo-4,5-dihydropyrazolo[1,5-a]pyrimidine-6-carboxamide] | 0.84 |
| CNc1nn2c(O)c(C(=O)NC3CC3)c(=O)n(CC(C)C)c2c1/C=C/C(=O)N1CC[C@H](F)C1 [Synthesis Example 429, (S,E)-N-Cyclopropyl-3-(3-(3-fluoropyrrolidin-1-yl)-3-oxoprop-1-en-1-yl)-7-hydroxy-4-isobutyl-2-(methylamino)-5-oxo-4,5-dihydropyrazolo[1,5-a]pyrimidine-6-carboxamide] | 0.8 |
| CNc1nn2c(O)c(C(=O)NC3CC3)c(=O)n(CC(C)C)c2c1/C=C/C(=O)N1CCOC[C@@H]1C [Synthesis Example 430, (S,E)-N-Cyclopropyl-7-hydroxy-4-isobutyl-2-(methylamino)-3-(3-(3-methylmorpholino)-3-oxoprop-1-en-1-yl)-5-oxo-4,5-dihydropyrazolo[1,5-a]pyrimidine-6-carboxamide] | 0.92 |
| CNc1nn2c(O)c(C(=O)NC3CC3)c(=O)n(CC(C)C)c2c1/C=C/C(=O)N1CC2CCC(C1)O2 [Synthesis Example 431, (E)-3-(3-(8-Oxa-3-azabicyclo[3.2.1]octan-3-yl)-3-oxoprop-1-en-1-yl)-N-cyclopropyl-7-hydroxy-4-isobutyl-2-(methylamino)-5-oxo-4,5-dihydropyrazolo[1,5-a]pyrimidine-6-carboxamide] | 0.81 |
| CNc1nn2c(O)c(C(=O)NC3CC3)c(=O)n(CC(C)C)c2c1/C=C/C(=O)N1[C@@H](C)COC[C@@H]1C [Synthesis Example 432, N-Cyclopropyl-3-((E)-3-((3S,5S)-3,5-dimethylmorpholino)-3-oxoprop-1-en-1-yl)-7-hydroxy-4-isobutyl-2-(methylamino)-5-oxo-4,5-dihydropyrazolo[1,5-a]pyrimidine-6-carboxamide] | 0.66 |
| CC(C)(C)Cn1c(=O)c(C(=O)NC2CC2)c(O)n2nc(N)c(/C=C/C3CCOCC3)c12 [Synthesis Example 433, (E)-2-Amino-N-cyclopropyl-7-hydroxy-4-neopentyl-5-oxo-3-(2-(tetrahydro-2H-pyran-4-yl)vinyl)-4,5-dihydropyrazolo[1,5-a]pyrimidine-6-carboxamide hydrochloride] | 0.97 |
| CC(C)Cn1c(=O)c(C(=O)NC2CC2)c(O)n2nc(N)c(/C=C/C3CCOCC3)c12 [Synthesis Example 434, (E)-2-Amino-N-cyclopropyl-7-hydroxy-4-isobutyl-5-oxo-3-(2-(tetrahydro-2H-pyran-4-yl)vinyl)-4,5-dihydropyrazolo[1,5-a]pyrimidine-6-carboxamide hydrochloride] | 1.4 |
| C=Cc1c(N)nn2c(O)c(C(=O)NC3CC3)c(=O)n(CC(C)C)c12 [Synthesis Example 435, 2-Amino-N-cyclopropyl-7-hydroxy-4-isobutyl-5-oxo-3-vinyl-4,5-dihydropyrazolo[1,5-a]pyrimidine-6-carboxamide] | 1.46 |
| CCc1c(N)nn2c(O)c(C(=O)NC3CC3)c(=O)n(CC(C)(C)C)c12 [Synthesis Example 436, 2-Amino-N-cyclopropyl-3-ethyl-7-hydroxy-4-neopentyl-5-oxo-4,5-dihydropyrazolo[1,5-a]pyrimidine-6-carboxamide hydrochloride] | 1.2 |
| Cc1c(N)nn2c(O)c(C(=O)NC3CC3)c(=O)n(CC(C)(C)C)c12 [Synthesis Example 437, 2-Amino-N-cyclopropyl-7-hydroxy-3-methyl-4-neopentyl-5-oxo-4,5-dihydropyrazolo[1,5-a]pyrimidine-6-carboxamide hydrochloride] | 1.38 |
| C/C=C/c1c(N)nn2c(O)c(C(=O)NC3CC3)c(=O)n(CC(C)(C)C)c12 [Synthesis Example 438, (E)-2-Amino-N-cyclopropyl-7-hydroxy-4-neopentyl-5-oxo-3-(prop-1-en-1-yl)-4,5-dihydropyrazolo[1,5-a]pyrimidine-6-carboxamide hydrochloride] | 0.98 |
| CC(C)Cn1c(=O)c(C(=O)NC2CC2)c(O)n2nc(N)c(/C=C/C(C)(C)C)c12 [Synthesis Example 439, (E)-2-Amino-N-cyclopropyl-3-(3,3-dimethylbut-1-en-1-yl)-7-hydroxy-4-isobutyl-5-oxo-4,5-dihydropyrazolo[1,5-a]pyrimidine-6-carboxamide hydrochloride] | 1.61 |
| CC(C)(C)Cn1c(=O)c(C(=O)NC2CC2)c(O)n2nc(N)c(/C=C/C3CC3)c12 [Synthesis Example 440, (E)-2-Amino-N-cyclopropyl-3-(2-cyclopropylvinyl)-7-hydroxy-4-neopentyl-5-oxo-4,5-dihydropyrazolo[1,5-a]pyrimidine-6-carboxamide hydrochloride] | 1.2 |
| CC(C)Cn1c(=O)c(C(=O)NC2CC2)c(O)n2nc(N)c(/C=C/C3CCCCC3)c12 [Synthesis Example 441, (E)-2-Amino-3-(2-cyclohexylvinyl)-N-cyclopropyl-7-hydroxy-4-isobutyl-5-oxo-4,5-dihydropyrazolo[1,5-a]pyrimidine-6-carboxamide] | 4.74 |
| CC(C)/C=C/c1c(N)nn2c(O)c(C(=O)NC3CC3)c(=O)n(CC(C)(C)C)c12 [Synthesis Example 442, (E)-2-Amino-N-cyclopropyl-7-hydroxy-3-(3-methylbut-1-en-1-yl)-4-neopentyl-5-oxo-4,5-dihydropyrazolo[1,5-a]pyrimidine-6-carboxamide hydrochloride] | 1.53 |
| Nc1nn2c(O)c(C(=O)NC3CC3)c(=O)n(CC3CCOCC3)c2c1/C=C/C1CCOCC1 [Synthesis Example 443, (E)-2-Amino-N-cyclopropyl-7-hydroxy-5-oxo-4-((tetrahydro-2H-pyran-4-yl)methyl)-3-(2-(tetrahydro-2H-pyran-4-yl)vinyl)-4,5-dihydropyrazolo[1,5-a]pyrimidine-6-carboxamide hydrochloride] | 0.65 |
